Among the data in US8138189B2, “Substituted benzene compounds as modulators of the glucocorticoid receptor” (Hoffman-La Roche Inc., priority 2009, dated 2012) are Ki values, retold here.

pKi: −log10 of the molar value.

For the assay, the target named is T1, full length human recombinant glucocorticoid receptor (Homo sapiens, UniProt P04150).
T1 construct: partially purified full length human recombinant glucocorticoid receptor; purchased Panvera/Invitrogen PV4302
T1 sequence (P04150 1-777): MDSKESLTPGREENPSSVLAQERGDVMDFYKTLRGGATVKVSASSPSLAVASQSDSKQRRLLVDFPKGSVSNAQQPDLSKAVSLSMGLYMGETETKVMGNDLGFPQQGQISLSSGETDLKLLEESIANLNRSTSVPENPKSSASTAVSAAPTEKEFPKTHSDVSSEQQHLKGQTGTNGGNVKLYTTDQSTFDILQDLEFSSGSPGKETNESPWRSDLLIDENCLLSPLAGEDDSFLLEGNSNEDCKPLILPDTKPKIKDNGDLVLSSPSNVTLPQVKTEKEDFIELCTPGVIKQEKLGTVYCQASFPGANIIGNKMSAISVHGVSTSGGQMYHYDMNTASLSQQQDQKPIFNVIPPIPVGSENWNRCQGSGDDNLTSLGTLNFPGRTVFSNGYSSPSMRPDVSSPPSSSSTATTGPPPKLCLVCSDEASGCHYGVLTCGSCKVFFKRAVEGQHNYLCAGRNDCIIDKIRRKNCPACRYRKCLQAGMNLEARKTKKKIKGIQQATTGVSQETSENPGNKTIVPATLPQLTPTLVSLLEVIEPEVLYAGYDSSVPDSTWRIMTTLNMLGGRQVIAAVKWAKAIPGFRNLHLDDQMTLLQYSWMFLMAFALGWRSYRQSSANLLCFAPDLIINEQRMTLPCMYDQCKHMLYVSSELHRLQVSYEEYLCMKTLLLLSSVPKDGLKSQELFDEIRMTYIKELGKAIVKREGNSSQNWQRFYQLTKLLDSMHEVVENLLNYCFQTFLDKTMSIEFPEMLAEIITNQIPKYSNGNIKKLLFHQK
Nature of the assay: Glucocorticoid Receptor Binding Assay (fluorescence polarization competitor assay, Fluormone GS Far Red tracer). The protocol:
Glucocorticoid Receptor Binding Assay
The ability of the substances to bind to the glucocorticoid receptor was determined with the help of a commercial Glucocorticoid Receptor Competitor Assay far red kit provided by Panvera/Invitrogen (PV4302). This kit is used as provided by the supplier. It contains some partially purified full length human recombinant glucocorticoid receptor, a coactivator related GR stabilizing peptide, a tight-binding fluorescent GR ligand Fluormone™ GS Far Red as labeled tracer and a screening buffer. All reagents are prepared and the assay is run according to the recommendations of the kit manufacturer.
Briefly, the GR stabilizing peptide and the human recombinant glucocorticoid receptor are both diluted with the screening buffer (pH 7.4) and are gently mixed (no vortexing) just before the assay and kept on ice until use. The fluorescent-labeled ligand is also diluted with the screening buffer just before the assay and kept on ice until use. The substances to test are pre-diluted in pure DMSO then some water is added to get an intermediate 4.2% DMSO stock solution. Ten microliter of the intermediate stock solution is gently mixed with 5 μl of diluted fluorescent-labeled ligand and 5 μl of diluted human recombinant glucocorticoid receptor in a 384-well plate (low volume, ultraclear, glass plate from Greiner ref 788896). The plate is centrifuged, sealed and incubated for 3 hours at 22° C. in the dark. The polarized fluorescence is measured with a Zeiss-HTS reader or any equivalent equipment (610-660 nm).
All compounds were tested to determine IC50 in a serial dilution experiment. The concentration at which 50% inhibition of the fluorescent GR ligand Fluormone™ GS Far Red is obtained (the IC50) is determined after fitting with a sigmoidal dose-response model of a plot of the logarithm of the concentration versus percent inhibition measured for the different concentrations. Ki's were calculated from IC50 based on Cheng-Prusoff equation (Cheng, Y, Prusoff, W H (1973) Biochem Pharmacol 22, 3099-3108): Ki=IC50/[1+D/Kd] wherein D is the concentration of the fluorescent ligand and Kd is the binding constant for the fluorescent ligand binding to the receptor under the conditions used in the competition experiment.
(In fluorescence polarisation assays a small probe gives low polarisation when free and higher when bound to something large.)
Broadly, the pKi is −log10 of the Ki, conventionally taken in molar units. In the case of `C[C@@H](c1ccc(OCc2ccc(CC(=O)O)cc2)cc1Cl)[C@](O)(c1cnc2ccccc2c1)C(F)(F)F` (relative stereo) [Example 145, {4-[3-Chloro-4-(3,3,3-trifluoro-2-hydroxy-1-methyl-2-quinolin-3-yl-propyl)-phenoxymethyl]-phenyl}-acetic acid], the pKi was 8.72. For the compound `COC(=O)c1ccc(Oc2ccc([C@@H](C)[C@@](O)(c3ccc(=O)n(C)c3)C(F)(F)F)c(Cl)c2)cc1` (relative stereo) [Example 151, 4-{3-Chloro-4-[3,3,3-trifluoro-2-hydroxy-1-methyl-2(1-methyl-6-oxo-1,6-dihydro-pyridin-3-yl)-propyl]-phenoxy}-benzoic acid methyl ester], the pKi is 8.62. For `C[C@H](c1ccc(Oc2ccc(C(=O)O)cc2F)cc1Cl)[C@@](O)(c1ccc(=O)n(C)c1)C(F)(F)F` (relative stereo) [Example 156, 4-{3-Chloro-4-[3,3,3-trifluoro-2-hydroxy-1-methyl-2-(1-methyl-6-oxo-1,6-dihydro-pyridin-3-yl)-propyl]-phenoxy}-3-fluoro-benzoic acid], the pKi is 9.05. With `C[C@H](c1ccc(Oc2ccc(C(=O)O)cc2Cl)cc1Cl)[C@@](O)(c1ccc(=O)n(C)c1)C(F)(F)F` (relative stereo) [Example 157, 3-Chloro-4-{3-chloro-4-[3,3,3-trifluoro-2-hydroxy-1-methyl-2(1-methyl-6-oxo-1,6-dihydro-pyridin-3-yl)-propyl]-phenoxy}-benzoic acid], the negative-log Ki (pKi) was 9.15. Turning to `CCOC(=O)COc1ccc(Oc2ccc([C@@H](C)[C@@](O)(c3ccc(=O)n(C)c3)C(F)(F)F)c(Cl)c2)cc1` (relative stereo) [Example 159, (4-{3-Chloro-4-[3,3,3-trifluoro-2-hydroxy-1-methyl-2-(1-methyl-6-oxo-1,6-dihydro-pyridin-3-yl)-propyl]-phenoxy}-phenoxy)-acetic acid ethyl ester], the pKi was 8.70. Turning to `COC(=O)c1cnc(Oc2ccc([C@@H](C)[C@@](O)(c3ccc(=O)n(C)c3)C(F)(F)F)c(Cl)c2)cc1C(F)(F)F` (relative stereo) [Example 163, 6-{3-Chloro-4-[3,3,3-trifluoro-2-hydroxy-1-methyl-2-(1-methyl-6-oxo-1,6-dihydro-pyridin-3-yl)-propyl]-phenoxy}-4-trifluoromethyl-nicotinic acid methyl ester], the pKi was 7.62. For the compound `C[C@H](c1ccc(-c2ccc(F)c(C(=O)O)c2)cc1Cl)[C@@](O)(c1ccc(=O)n(C)c1)C(F)(F)F` (relative stereo) [Example 165, 3′-Chloro-4-fluoro-4′-[3,3,3-trifluoro-2-hydroxy-1-methyl-2-(1-methyl-6-oxo-1,6-dihydro-pyridin-3-yl)-propyl]-biphenyl-3-carboxylic acid], the pKi was 7.55. Next, `C[C@@H](c1ccc(-c2ccc(CC(=O)O)cc2)cc1Cl)[C@](O)(c1ccc(=O)n(C)c1)C(F)(F)F` (relative stereo) [Example 171, {3′-Chloro-4′-[3,3,3-trifluoro-2-hydroxy-1-methyl-2-(1-methyl-6-oxo-1,6-dihydro-pyridin-3-yl)-propyl]-biphenyl-4-yl}-acetic acid]: 7.10; `C[C@@H](c1ccc(Oc2ccc(C(=O)O)cc2)cc1Cl)[C@](O)(c1ccc(=O)[nH]c1)C(F)(F)F` (relative stereo) [Example 175, 4-{3-Chloro-4-[3,3,3-trifluoro-2-hydroxy-1-methyl-2-(6-oxo-1,6-dihydro-pyridin-3-yl)-propyl]-phenoxy}-benzoic acid]: 7.12. Next, `C[C@@H](c1ccc(-c2ccc(C(=O)O)c(Cl)c2)cc1Cl)[C@](O)(c1ccc(=O)[nH]c1)C(F)(F)F` (relative stereo) [Example 179, 3,3′-Dichloro-4′-[3,3,3-trifluoro-2-hydroxy-1-methyl-2-(6-oxo-1,6-dihydro-pyridin-3-yl)-propyl]-biphenyl-4-carboxylic acid]: 6.30. Take `C[C@@H](c1ccc(-c2ccc(CC(=O)O)cc2)cc1Cl)[C@](O)(c1ccc(=O)[nH]c1)C(F)(F)F` (relative stereo) [Example 182, {3′-Chloro-4′-[3,3,3-trifluoro-2-hydroxy-1-methyl-2-(6-oxo-1,6-dihydro-pyridin-3-yl)-propyl]-biphenyl-4-yl}-acetic acid]: the pKi was 6.38. In the case of `CCOC(=O)c1cc(-c2ccc([C@H](C)[C@](O)(c3ccc(=O)n(CC)c3)C(F)(F)F)c(Cl)c2)ccc1F` (relative stereo) [Example 183, 3′-Chloro-4′-[2-(1-ethyl-6-oxo-1,6-dihydro-pyridin-3-yl)-3,3,3-trifluoro-2-hydroxy-1-methyl-propyl]-4-fluoro-biphenyl-3-carboxylic acid ethyl ester], the pKi was 8.12. For `CCn1cc([C@@](O)([C@@H](C)c2ccc(-c3ccc(C(=O)O)c(F)c3)cc2Cl)C(F)(F)F)ccc1=O` (relative stereo) [Example 186, 3′-Chloro-4′-[2-(1-ethyl-6-oxo-1,6-dihydro-pyridin-3-yl)-3,3,3-trifluoro-2-hydroxy-1-methyl-propyl]-3-fluoro-biphenyl-4-carboxylic acid], the pKi is 7.17.

On to `COC(=O)c1ccc(Oc2ccc(Cl)c([C@H](C)[C@](O)(c3ccc(=O)n(C)c3)C(F)(F)F)c2)cc1Cl` (relative stereo) [Example 189, 2-Chloro-4-{4-chloro-3-[3,3,3-trifluoro-2-hydroxy-1-methyl-2-(1-methyl-6-oxo-1,6-dihydro-pyridin-3-yl)-propyl]-phenoxy}-benzoic acid methyl ester], for which the pKi is 8.26.

For `COC(=O)c1ccc(Oc2ccc([C@@H](C)[C@@](O)(c3ccc(=O)n(C)c3)C(F)(F)F)c(Cl)c2Cl)cc1` (relative stereo) [Example 197, 4-{2,3-Dichloro-4-[3,3,3-trifluoro-2-hydroxy-1-methyl-2-(1-methyl-6-oxo-1,6-dihydro-pyridin-3-yl)-propyl]-phenoxy}-benzoic acid methyl ester], the pKi was 8.74.

In the case of `COC(=O)c1cnc(Oc2ccc([C@H](C)[C@](O)(c3cc(C)c(=O)n(C)c3)C(F)(F)F)c(Cl)c2)cc1C(F)(F)F` (relative stereo) [Example 205, 6-{3-Chloro-4-[2-(1,5-dimethyl-6-oxo-1,6-dihydro-pyridin-3-yl)-3,3,3-trifluoro-2-hydroxy-1-methyl-propyl]-phenoxy}-4-trifluoromethyl-nicotinic acid methyl ester], the pKi is 8.89. On to `Cc1cc([C@@](O)([C@@H](C)c2ccc(Oc3ccc(C(=O)O)c(Cl)c3)cc2Cl)C(F)(F)F)cn(C)c1=O` (relative stereo) [Example 208, 2-Chloro-4-{3-chloro-4-[2-(1,5-dimethyl-6-oxo-1,6-dihydro-pyridin-3-yl)-3,3,3-trifluoro-2-hydroxy-1-methyl-propyl]-phenoxy}-benzoic acid], for which the pKi was 9.40. The same measure for `CCOC(=O)c1cc(Oc2ccc([C@H](C)[C@](O)(c3cc(C)c(=O)n(C)c3)C(F)(F)F)c(Cl)c2)ccc1Cl` (relative stereo) [Example 210, 2-Chloro-5-{3-chloro-4-[2-(1,5-dimethyl-6-oxo-1,6-dihydro-pyridin-3-yl)-3,3,3-trifluoro-2-hydroxy-1-methyl-propyl]-phenoxy}-benzoic acid ethyl ester]: 8.70; for `Cc1cc([C@@](O)([C@@H](C)c2ccc(Oc3ccc(F)c(C(=O)O)c3)cc2Cl)C(F)(F)F)cn(C)c1=O` (relative stereo) [Example 213, 5-{3-Chloro-4-[2-(1,5-dimethyl-6-oxo-1,6-dihydro-pyridin-3-yl)-3,3,3-trifluoro-2-hydroxy-1-methyl-propyl]-phenoxy}-2-fluoro-benzoic acid]: 9.40.
